From paper PMC9413491, “A Novel and Cross-Species Active Mammalian INDY (NaCT) Inhibitor Ameliorates Hepatic Steatosis in Mice with Diet-Induced Obesity” (Metabolites, 2022)

How the values were obtained:
[1] = biological target: T1, human NaCT (Homo sapiens, UniProt Q86YT5); test: [14C] citrate uptake in HepG2 cells endogenously expressing human NaCT; type: cell-based
T1 construct: citrate uptake into HepG2 cells, which endogenously expressed NaCT; host or cells: HepG2
Excerpt: (§1) We determined activity on human NaCT by measuring citrate uptake into HepG2 cells, which endogenously expressed NaCT [37] and for mouse Nact, using HEK293 cells recombinantly expressing mouse Nact (HEK-Nact). We cloned the mouse Slc13a5 cDNA encoding Nact as described previously.
(§2) For radiometric [14C] citrate uptake assays, we used Cytostar-T plates (Perkin Elmer#RPNQ0166, Waltham, MA, USA). For each assay, we seeded 20,000 HepG2 cells per well on collagen coated 384-well Cytostar-T plates or 5000 HEK293 cells per well on ploy-D-lysine coated 384-well Cytostar-T plates. On the following day, we changed culture medium to assay buffer: 120 mM NaCl, 5.4 mM KCl, 0.8 mM MgSO4, 5 mM glucose, 1.8 mM CaCl2, 25 mM Hepes, 25 mM MES, pH 6.5 (human) and pH 7.5 (mouse). We preincubated cells with compounds at 37 °C for 20 min, after which we added [14C] citrate (3 µM for HEK cells and 10 µM for HepG2 cells) and incubated cells for 50 min at 37 °C. After cooling down for 15 min at 4 °C, we measured the counts using a Microbeta2 reader system (Perkin Elmer).

[2] = biological target: T2, mouse Nact (Mus musculus, UniProt Q67BT3); test: [14C] citrate uptake in HEK293 cells recombinantly expressing mouse Nact; type: cell-based; settings: HEK293 overexpressing mouse Nact, citrate substrate; read-out: IC50 [14C] citrate uptake, HEK293 (mouse Nact)
T2 construct: expressed in transfected cells; host or cells: HEK293 (DSMZ), stably transfected, G418 selection
T2 sequence (Q67BT3 1-572): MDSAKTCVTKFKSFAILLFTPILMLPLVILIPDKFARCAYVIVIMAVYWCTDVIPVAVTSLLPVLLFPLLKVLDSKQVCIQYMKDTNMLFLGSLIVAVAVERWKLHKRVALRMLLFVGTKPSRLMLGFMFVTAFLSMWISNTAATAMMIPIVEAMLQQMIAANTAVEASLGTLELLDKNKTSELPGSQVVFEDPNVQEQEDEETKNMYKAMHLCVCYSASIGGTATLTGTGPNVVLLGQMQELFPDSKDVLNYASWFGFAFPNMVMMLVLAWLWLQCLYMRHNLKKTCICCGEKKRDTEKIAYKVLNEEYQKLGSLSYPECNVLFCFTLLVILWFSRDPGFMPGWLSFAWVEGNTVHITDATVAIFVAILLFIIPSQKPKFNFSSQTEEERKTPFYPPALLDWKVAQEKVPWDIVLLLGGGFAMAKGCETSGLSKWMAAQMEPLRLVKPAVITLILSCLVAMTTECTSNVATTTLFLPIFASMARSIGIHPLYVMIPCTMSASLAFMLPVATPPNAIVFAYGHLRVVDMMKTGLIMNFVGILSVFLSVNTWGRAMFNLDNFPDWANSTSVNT
Excerpt: as §1, §2

[3] = tested on: DIO mice; test: 7-day treatment of diet-induced obesity (DIO) mice; type: in vivo, mouse; settings: 15 mg/kg twice daily, 7 days
Protocol: We performed in vivo testing in DIO mice (for 7- and 28-day treatment), an established model designed to study high-fat-diet-induced hepatic steatosis and associated cardiometabolic traits. We established DIO in four-week-old C57BL/6N male mice that were fed a high-fat diet (HFD, 60 kcal% fat, D12492; Research Diets, Inc.; New Brunswick, NJ, USA) until 11 weeks of age.
Mice were housed at a temperature of 22–24 °C, with a day/night cycle of 12/12 h (07:00-19:00–07:00) and had access to the appropriate diet and tap water ad libitum. Animals allocated to the pair-feeding group were fed the same amount of food as the corresponding treatment group had consumed the day before. Food was only withdrawn for overnight fasting on the penultimate study day before the section on the final day. We randomised groups of n = 12 for treatment and n = 8 for pair-feeding cage-wise according to random fed blood glucose levels and body weight before the study treatment was started. For all animals, the high-fat diet was started at the same age.
We treated DIO mice with the inhibitor or corresponding vehicle (5% DMSO/10% Cremophor® EL/85% water) twice a day at the same time by oral gavage according to their grouping (5, 15, and 50 mg/kg dose groups, and vehicle control groups). During the study, we measured body weight and blood glucose. We measured glucose concentrations in tail tip blood samples with the “Accu-Chek® Performa” glucometer (Roche, Basel, Switzerland, range <33.3 mmol/L). We determined random fed blood glucose and fasting blood glucose after overnight fasting.
We determined serum beta-hydroxybutyrate with a Beta-Hydroxybutyrate Assay kit, (Sigma-Aldrich, Cat.No. MAK041, St. Louis, MO, USA) following the manufacturer’s instructions. The sample was undiluted, and the volume was 5 µL.
We performed Western blots as described previously. Deviating from that protocol samples were heated for 5 min at 95 °C and blotting time was 1 h at 20 volts. For target protein detection, AMPK alpha (D63G4) Rabbit mAb (Cell Signaling Technology, Inc., Danvers, MA, USA; Cat. No. #5832/3; working dilution 1:1000) and Phospho-AMPK alpha (Thr172) (40H9) Rabbit mAb (Cell Signaling Technology, Inc.; Cat. No. #2535/16; working dilution 1:1000) were used; gel loading was controlled by anti-beta-actin (Sigma-Aldrich, Cat. No. A2228). We detected signals with the SuperSignal West Dura Extended Duration Substrate (Thermo Fisher Scientific; Cat. No. 34076, Waltham, MA, USA).

[4] = Blood-brain barrier penetration: brain versus liver concentrations; type: in vivo; settings: brain vs liver

T1 sequence (Q86YT5 whole entry): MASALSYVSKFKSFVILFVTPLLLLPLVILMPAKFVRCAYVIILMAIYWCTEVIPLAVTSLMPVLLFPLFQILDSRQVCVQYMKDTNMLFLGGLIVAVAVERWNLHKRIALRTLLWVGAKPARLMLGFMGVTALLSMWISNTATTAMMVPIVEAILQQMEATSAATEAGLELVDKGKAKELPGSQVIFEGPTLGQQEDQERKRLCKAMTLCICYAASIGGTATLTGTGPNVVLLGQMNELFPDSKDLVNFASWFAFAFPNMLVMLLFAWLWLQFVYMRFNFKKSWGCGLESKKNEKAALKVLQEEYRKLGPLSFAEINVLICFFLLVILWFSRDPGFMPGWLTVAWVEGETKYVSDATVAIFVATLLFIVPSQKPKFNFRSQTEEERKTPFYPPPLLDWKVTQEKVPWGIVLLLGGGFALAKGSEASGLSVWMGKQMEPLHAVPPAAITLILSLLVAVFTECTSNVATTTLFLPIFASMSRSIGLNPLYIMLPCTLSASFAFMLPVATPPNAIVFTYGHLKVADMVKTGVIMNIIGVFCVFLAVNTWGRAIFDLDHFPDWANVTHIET

O=C(Nc1cc(Cl)cc(C(F)(F)F)c1)OCCC(F)(F)F [ETG-5773]
In vitro activity relative to PF-06649298 ([1]; ETG-5773 more active than PF-06649298): more than 100 fold
IC50 ([1]; HepG2, human NaCT, citrate substrate): 0.16 µM
IC50 [2]: 0.18 µM
Liver fat after seven-days treatment [3]: not sufficient to significantly reduce liver fat
Ratio of phosphorylated AMPK to total AMPK in liver vs both control groups ([3]; Western blot, p < 0.01): AMPK activation
HOMA-IR change vs vehicle ([3]; numerically reduced, p = 0.24): −95%
Fasting serum insulin change vs vehicle ([3]; numerically reduced, p = 0.4): −91%
Body weight change vs vehicle control ([3]; p < 0.0001): −15%
Fasting blood glucose change vs vehicle ([3]; p < 0.0001): −45%
Reduction in fasting blood glucose vs pair-fed vehicle control ([3]; p < 0.0001): 36%
Reduction in HOMA-IR vs pair-fed vehicle control ([3]; p < 0.05): > 95%
Reduction in fasting serum insulin vs pair-fed vehicle control ([3]; p < 0.05): > 95%
Concentration in brain relative to liver (lower) [4]: 30 fold
